By IC50 is commonly meant the concentration needed to halve the response being measured.

The subject of the assay is hyaluronan export from fibroblasts. The assay is described as follows: Assay for hyaluronan transport/export inhibitors in fibroblast cell culture (hyaluronan in culture medium by ELISA). The assay is classed as cell-based. To be noted: 48 h, 2 days at 37° C., hyaluronan concentration in culture medium, read-out: Inhibition of hyaluronan export IC50. How it is done:
Assay for Hyaluronan Transport/Export Inhibitors in Fibroblast Cell Culture
Trypsinized fibroblasts were suspended in Dulbeccos medium at 10^5 cells/ml and 100 μl aliquots were transferred to a 96 well microtiter plate. The first row received 200 μl of the suspension and 20 μl of the inhibitors of the invention dissolved in phosphate buffered saline at concentrations of 4 mM. A serial dilution of the inhibitors was established by transfer of 100 μl aliquots from the first row to the following rows. All experiments were performed in duplicates. […] The cells were incubated for 2 days at 37° C. and aliquots (5 and 20 μl) of the culture medium were used for measurement of the hyaluronan concentration in the cell culture medium by an ELISA [125]. Briefly, the wells of a 96 well Covalink-NH-microtiter plate (NUNC) were coated with 100 μl of a mixture of […] of hyaluronan (HEALON®), 9.2 μg/ml of N-Hydroxysuccinimide-3-sulfonic acid and 615 μl/ml of 1-ethyl-3-(3-dimethylaminopropyl)-carbodiimide for 2 hours at room temperature and overnight at 4° C. The wells were washed three times with 2 M NaCl, 41 mM MgSO4, 0.05% Tween-20 in 50 mM phosphate buffered saline pH 7.2 (buffer A) and once with 2 M NaCl, 41 mM MgSO4, in phosphate buffered saline pH 7.2. Additional binding sites were blocked by incubation with 300 μl of 0.5% bovine serum albumin in phosphate buffered saline for 30 min at 37° C. Calibration of the assay was performed with standard concentrations of hyaluronan ranging from 15 ng/ml to 6000 ng/ml in equal volumes of culture medium as used for measurement of the cellular supernatants. A solution (50 μl) of the biotinylated hyaluronan binding fragment of aggrecan (Calbiochem) in 1.5 M NaCl, 0.3 M guanidinium hydrochloride, 0.08% bovine serum albumin 0.02% NaN3 25 mM phosphate buffer pH 7.0 was preincubated with 50 μl of the standard hyaluronan solutions or cellular supernatants for 1 hour at 37° C. […] The adsorption was read at 490 nm. The concentrations in the samples were calculated from a logarithmic regression curve of the hyaluronan standard solutions.
With `COc1cc(O)c(CC=C(C)C)c(O)c1C(=O)/C=C/c1ccc(O)cc1` [Xanthohumol], the IC50 turned out to be 8 µM.

With `COc1cc(O)c(CC=C(C)C)c2c1C(=O)CC(c1ccc(O)cc1)O2` (stereo not drawn) [Isoxanthohumol], the IC50 came to 15 µM.

Regarding `CC(C)=CCc1c(O)cc(O)c2c1OC(c1ccc(O)cc1)CC2=O` (stereo not drawn) [8-Prenylnaringenin], the IC50 came out at 15 µM.

Source of the values: US20150045423A1, “COMPOUNDS FOR THE PREVENTION AND/OR TREATMENT OF OSTEOARTHROSIS” (Universitaetsklinikum Muenster, priority 2010, published 2015).
